Data set [1] has as its target T1, purified bovine brain tubulin (Bos taurus, UniProt P81947+Q6B856). Put plainly: Tubulin assembly assay. The data set is classed as biochemical. Particulars: ratio of tubulin assembly IC50 vs 5.
The subject of data set [2] is β-III overexpressing HeLa cells. Put plainly: Cell proliferation. Type of data set: cell-based.
The next data set relates to WT HeLa cells. Put plainly: Cell proliferation. The data set is classed as cell-based. Particulars: Homo sapiens, 96 h, read-out: WT HeLa IC50 (µM) ± SD.
For a further data set, the system named is Parental OVCAR-8 cells. Put plainly: Cell proliferation. Type of data set: cell-based. Particulars: Homo sapiens, OVCAR-8, 96 h, read-out: Parental OVCAR-8 IC50 (µM) ± SD.
Data set [3] has as its system Pgp overexpressing NCI/ADR-RES cells. Briefly: Cell proliferation. The data set is classed as cell-based. Particulars: Homo sapiens, 96 h, read-out: Pgp overexpressing NCI/ADR-RES IC50 (µM) ± SD.
Data set [4] relates to BLBC MDA-MB-435 and U251 glioma xenografts, 4T1 triple negative breast allograft. Particulars: cited from earlier work.
The target in data set [5] is T1, purified bovine brain tubulin. Particulars: read-out: tubulin assembly IC50 (µM) ± SD; cited from earlier work.

Counter-ions that a name gives are not always drawn.

T1 sequence (P81947 whole entry): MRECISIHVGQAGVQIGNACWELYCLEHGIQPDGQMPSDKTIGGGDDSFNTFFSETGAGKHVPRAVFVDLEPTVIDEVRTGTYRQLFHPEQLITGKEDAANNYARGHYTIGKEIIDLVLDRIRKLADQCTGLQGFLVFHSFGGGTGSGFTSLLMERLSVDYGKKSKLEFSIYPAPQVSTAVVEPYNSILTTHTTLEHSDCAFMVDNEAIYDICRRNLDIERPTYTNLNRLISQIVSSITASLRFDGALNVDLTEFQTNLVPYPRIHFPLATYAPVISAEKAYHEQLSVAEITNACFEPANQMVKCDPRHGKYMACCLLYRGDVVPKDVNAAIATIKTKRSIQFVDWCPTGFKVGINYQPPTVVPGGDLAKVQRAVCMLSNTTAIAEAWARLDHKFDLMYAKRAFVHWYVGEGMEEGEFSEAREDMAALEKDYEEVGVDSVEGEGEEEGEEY
T1 sequence (Q6B856 whole entry): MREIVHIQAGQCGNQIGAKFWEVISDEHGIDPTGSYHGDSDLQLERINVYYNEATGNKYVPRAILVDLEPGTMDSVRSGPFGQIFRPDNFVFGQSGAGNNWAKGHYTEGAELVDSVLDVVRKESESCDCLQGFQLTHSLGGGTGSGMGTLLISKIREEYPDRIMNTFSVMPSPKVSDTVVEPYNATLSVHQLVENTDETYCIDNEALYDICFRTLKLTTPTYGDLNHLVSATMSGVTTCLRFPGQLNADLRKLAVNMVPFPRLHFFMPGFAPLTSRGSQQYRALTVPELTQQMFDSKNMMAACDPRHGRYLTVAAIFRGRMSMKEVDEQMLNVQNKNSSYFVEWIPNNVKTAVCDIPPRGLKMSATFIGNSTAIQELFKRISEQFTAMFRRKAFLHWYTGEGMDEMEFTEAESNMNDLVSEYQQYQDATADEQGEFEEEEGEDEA

For the molecule `COc1ccc(N(C)c2nc(C)nc3c(Cc4ccccc4)cn(C)c23)cc1.Cl` [7·HCl, 7-benzyl-N-(4-methoxyphenyl)-N,2,5-trimethyl-5H-pyrrolo[3,2-d]pyrimidin-4-amine hydrochloride], the “fold more potent than 5 in tubulin assembly” value in data set [1] is ~7 fold. Further, in data set [2] (isogenic HeLa cell line pair), the “fold less potent in βIII-tubulin overexpressing HeLa than in wild type HeLa” value is listed as “equal potency”.
For `COc1ccc(/C=C\c2cc(OC)c(OC)c(OC)c2)cc1O` [CA, combretastatin A-4], the IC50 with WT HeLa cells stood at 0.0018 ± 0.0004 µM.
In the case of `CC(=O)O[C@H]1C(=O)[C@@]2(C)[C@H]([C@H](OC(=O)c3ccccc3)[C@]3(O)C[C@H](OC(=O)[C@H](O)[C@@H](NC(=O)c4ccccc4)c4ccccc4)C(C)=C1C3(C)C)[C@]1(OC(C)=O)CO[C@@H]1C[C@@H]2O` [Paclitaxel, paclitaxel], the IC50 in data set [2] (Homo sapiens, HeLa, 96 h, read-out: β-III overexpressing HeLa IC50 (µM) ± SD) was found to be 0.016 ± 0.001 µM; in the data set on Parental OVCAR-8 cells, 0.005 ± 0.001 µM; in data set [3], 2.5 µM.
Take `COc1ccc2c(c1)CCCN2c1nc(C)nc2c(Cc3ccccc3)c[nH]c12` [5·HCl, 1-(7-benzyl-2-methyl-5H-pyrrolo[3,2-d]pyrimidin-4-yl)-6-methoxy-1,2,3,4-tetrahydroquinoline hydrochloride]: the IC50 in the data set on Parental OVCAR-8 cells stood at 0.12 ± 0.004 µM.
Consider `COc1ccc(N(C)c2nc(C)nc3c(Cc4ccccc4)c[nH]c23)cc1` [Compound 3], for which, in data set [4], the toxicity to animals entry was “without overt toxicity”. The “tumor size and vascularity” value in data set [4] (two flank xenograft models and 4T1 orthotopic allograft) is “reduced tumor size and vascularity”. In addition, the IC50 in data set [5] was 21 ± 1 µM.

The values above are taken from article PMC5191990 (Bioorganic & medicinal chemistry, 2016).
